Like-named read-outs stand apart in the source and are kept apart here.
Experiments:
H1299 p53 R273H = assay: Cell Proliferation Assay (CellTiter-Glo, CTG), H1299 p53 R273H (NClH1299-inducible p53 R273H); format: cell-based; conditions: Homo sapiens, NCI-H1299, 120 h, NClH1299-inducible p53 R273H cells, 5 days, CellTiter-Glo
Method in brief: (§1)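 NClH1299 lines stably transduced with Tet-inducible p53 Y220C or R273H, plus NUGC3, were treated with compound for 5 days at 250-500 cells/well. IC50 derived from CellTiter-Glo luminescent signal after 10 min room-temperature incubation.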

[1] = molecular target: T1, p53 Y220C mutant protein (amino acid residues 94-293) (Homo sapiens, UniProt P04637, Y220C); assay: Surface Plasmon Resonance (SPR) assay, Kd_kinetic; format: binding; conditions: read-out: SPR P53 Y220C KD kinetic
T1 construct: p53 Y220C mutant protein (amino acid residues 94-293)
Method in brief: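 Biacore 8K SPR; 16 or 20 °C; Tris 50 mM pH 7.5, NaCl 100 mM, DTT 1 mM, Brij35 0.01%, Tween-20 0.05%, DMSO 1%. Kd_kinetic by 1:1 fit.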

H1299 p53 Y220C = assay: Cell Proliferation Assay (CellTiter-Glo, CTG), H1299 p53 Y220C (NClH1299-inducible p53 Y220C); format: cell-based; conditions: Homo sapiens, NCI-H1299, 120 h, NClH1299-inducible p53 Y220C cells, 5 days, CellTiter-Glo
Method in brief: as §1

p53 Y220C = p53 Y220C (Homo sapiens, UniProt P04637, Y220C); assay: Luciferase Reporter Assay (Luc), p53 response element, NClH1299 cells with inducible p53 Y220C; format: cell-based; conditions: luciferase reporter, NClH1299 inducible p53 Y220C, 6 hour; for AC50: read-out: Luc P53 Y220C AC50
Method in brief: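 Cells were seeded at 5,000 per well and induced with 0.5 ug/mL doxycycline for 24 hours, then exposed to compound for 6 hours. One-Glo reagent was added, plates shaken 5 minutes at room temperature, and luminescence read immediately.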

[2] = molecular target: T1, p53 Y220C mutant protein (amino acid residues 94-293); assay: Thermal Shift Assay (TSA), dTM; format: binding; conditions: p53 Y220C, read-out: TSA P53 Y220C dTM; for ΔTm at 10 µM: 10 uM compound; for ΔTm at 100 µM: 100 uM compound
Method in brief: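 Sypro Orange melt (30→50 °C, 0.03 °C/s) with TM taken from a Boltzmann two-state fit. Protein (residues 94-293) at 5 μM was pre-incubated 3 h at 20 °C with compound at 10 μM or 100 μM in pH 7.4 HEPES/NaCl buffer containing 0.01% Pluronic F-127 and 1% DMSO.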

NUGC3 p53 Y220C = assay: Cell Proliferation Assay (CellTiter-Glo, CTG), NUGC3 p53 Y220C; format: cell-based; conditions: Homo sapiens, NUGC-3, 120 h, NUGC3 cells, 5 days, CellTiter-Glo
Method in brief: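 Tet-One inducible p53 Y220C or R273H constructs were stably introduced into NCI-H1299 by lentiviral transduction; NUGC3 was used as is. Cells (250-500 per well) were exposed to compound for 5 days, then CellTiter-Glo was added for 10 min at room temperature and IC50 was calculated from luminescence.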

Structure (SMILES)	IC50 (H1299 p53 R273H) [nM]	Kd [1] [nM]	IC50 (H1299 p53 Y220C) [nM]	AC50 (p53 Y220C) [nM]	Emax (p53 Y220C) [%]	ΔTm at 10 µM [2] [°C]	Kd ([1]; SPR, p53 Y220C) [nM]	ΔTm at 100 µM [2] [°C]	IC50 (NUGC3 p53 Y220C) [nM]
CNC(=O)c1ccc(NCC#Cc2cc3c(N[C@@H]4CCN(C)C[C@@H]4F)nccn3c2SC(F)(F)F)cc1 [Example 297]	≥ 10000	< 10	< 750	< 750	> 90	≥ 10	–	–	< 750
CNC(=O)c1ccc(C#N)c(NCC#Cc2cc3c(N[C@@H]4CCN(C)C[C@@H]4F)nccn3c2SC(F)(F)F)c1 [Example 300]	≥ 10000	–	< 750	< 750	> 90	≥ 10	< 10	–	< 750
CNC(=O)c1cc(F)c(OC)c(NCC#Cc2nc3c(N[C@@H]4CCN(C)C[C@@H]4F)cccn3c2SC(F)(F)F)c1 [Example 303]	≥ 10000	–	< 750	< 750	> 90	≥ 10	< 10	–	< 750
CNC(=O)c1cc(F)c(OC)c(NCC#Cc2nc3c(N[C@@H]4CCNC[C@@H]4F)cccn3c2SC(F)(F)F)c1 [Example 304]	< 5000	–	< 750	< 750	> 90	≥ 10	< 10	–	< 750
CCNC(=O)c1ccc(NCC#Cc2cc3c(N[C@@H]4CCN(C)C[C@@H]4F)nccn3c2SC(F)(F)F)c(OC)c1 [Example 306]	5000 to 8000	–	< 750	< 750	> 90	≥ 10	< 10	–	< 750
CNC(=O)c1ccc(OC)c(NCC#Cc2nc3c(N[C@@H]4CCNC[C@@H]4F)nccn3c2SC(F)(F)F)c1 [Example 307]	≥ 10000	–	< 750	< 750	80 to 90	≥ 10	< 10	–	< 750
COc1cc2c[nH]nc2cc1NCC#Cc1nc2c(N[C@@H]3CCN(C)C[C@@H]3F)cccn2c1SC(F)(F)F [Example 308, N-[3-(8-{[(3S,4R)-3-fluoro-1-methylpiperidin-4-yl]amino}-3-[(trifluoromethyl)sulfanyl]imidazo[1,2-a]pyridin-2-yl)prop-2-yn-1-yl]-5-methoxy-2H-indazol-6-amine]	< 5000	–	< 750	< 750	80 to 90	≥ 10	< 10	≥ 10	< 750
CCNC(=O)c1ccc(OC)c(NCC#Cc2nc3c(N[C@@H]4CCN(C)C[C@@H]4F)nccn3c2SC(F)(F)F)c1 [Example 309]	< 5000	–	< 750	< 750	70 to 80	≥ 10	< 10	–	< 750
CNC(=O)c1ccc(Cl)c(NCC#Cc2nc3c(N[C@@H]4CCN(C)C[C@@H]4F)cccn3c2SC(F)(F)F)c1 [Example 312]	5000 to 8000	–	< 750	< 750	> 90	≥ 10	< 10	–	< 750
CCNC(=O)c1ccc(NCC#Cc2nn3c(N[C@@H]4CCN(C)C[C@@H]4F)cccc3c2SC(F)F)c(OC)c1 [Example 317]	≥ 10000	–	< 750	< 750	80 to 90	≥ 10	< 10	–	< 750

Second part, led by results:

IC50 (H1299 p53 R273H) [nM]	Kd [1] [nM]	IC50 (H1299 p53 Y220C) [nM]	AC50 (p53 Y220C) [nM]	Emax (p53 Y220C) [%]	ΔTm at 10 µM [2] [°C]	Kd ([1]; SPR, p53 Y220C) [nM]	ΔTm at 100 µM [2] [°C]	Structure (SMILES)	IC50 (NUGC3 p53 Y220C) [nM]
5000 to 8000	–	< 750	< 750	80 to 90	≥ 10	< 10	–	CCNC(=O)c1ccc(OC)c(NCC#Cc2nn3c(N[C@@H]4CCN(C)C[C@@H]4F)cccc3c2SC(F)F)c1 [Example 318]	< 750
≥ 10000	–	< 750	< 750	> 90	≥ 10	< 10	–	CNC(=O)c1ccc(NCC#Cc2nc3c(N[C@@H]4CCNC[C@@H]4F)nccn3c2SC(F)(F)F)c(OC)c1 [Example 319]	< 750
≥ 10000	–	< 750	< 750	> 90	≥ 10	< 10	–	CNC(=O)c1ccc(OC)c(NCC#Cc2cc3c(N[C@@H]4CCN(C)C[C@@H]4F)nccn3c2SC(F)F)c1 [Example 321]	< 750
5000 to 8000	–	< 750	< 750	80 to 90	≥ 10	< 10	≥ 10	CNC(=O)c1ccc(NCC#Cc2nc3c(N[C@@H]4C[C@H]5CC[C@H](N5)[C@@H]4F)cccn3c2SC(F)(F)F)c(OC)c1 [Example 324, 4-{[3-(8-{[(1S,2S,3R,5R)-2-fluoro-8-azabicyclo[3.2.1]octan-3-yl]amino}-3-[(trifluoromethyl)sulfanyl]imidazo[1,2-a]pyridin-2-yl)prop-2-yn-1-yl]amino}-3-methoxy-N-methylbenzamide]	< 750
≥ 10000	–	< 750	< 750	> 90	≥ 10	< 10	–	CNC(=O)c1cnc(OC)c(NCC#Cc2cc3c(N[C@@H]4CCN(C)C[C@@H]4F)nccn3c2SC(F)F)c1 [Example 327]	< 750
< 5000	–	< 750	< 750	> 90	≥ 10	< 10	–	CNC(=O)c1ccc(OC2COC2)c(NCC#Cc2cc3c(N[C@@H]4CCN(C)C[C@@H]4F)nccn3c2SC(F)(F)F)c1 [Example 336]	< 750
5000 to 8000	–	< 750	< 750	> 90	≥ 10	< 10	–	CNC(=O)c1cnc(OC)c(NCC#Cc2cc3c(N[C@@H]4CN(C)C[C@@H]4F)cccn3c2SC(F)(F)F)c1 [Example 338]	< 750
5000 to 8000	–	< 750	< 750	80 to 90	≥ 10	< 10	–	COc1cc(S(C)(=O)=O)ccc1NCC#Cc1cc2c(N[C@@H]3CN(C)C[C@@H]3F)cccn2c1SC(F)(F)F [Example 339]	< 750
≥ 10000	–	< 750	< 750	80 to 90	≥ 10	< 10	–	CNC(=O)c1ccc(OC)c(NCC#Cc2cc3c(N[C@@H]4CCNC[C@@H]4F)nccn3c2SC(F)(F)F)n1 [Example 340]	< 750

Reference: patent US20260374766A1, “METHODS FOR TREATING CANCER” (Antares Therapeutics, Inc., priority 2022, published 2026)
